Assay results: ChEMBL document CHEMBL5036339, “Synthesis and biological evaluation of indole-based peptidomimetics as antibacterial agents against Gram-positive bacteria” (Eur J Med Chem, 2021)
Converted amounts (≈) assume the structure as drawn. The source made the active and inactive calls. The calls are words filed in the database; no cut-off is given here.

What was measured:
[1] = Hemolytic activity in rabbit erythrocytes assessed as concentration required to cause 50% hemolysis; assay type: ADME, cell-based, Oryctolagus cuniculus, Erythrocyte
Staphylococcus aureus [2] = experiment: Antibacterial activity against Staphylococcus aureus ATCC29213 assessed as reduction in bacterial growth in presence of sodium salt; assay type: functional
Staphylococcus aureus [3] = experiment: Antibacterial activity against methicillin-resistant Staphylococcus aureus N315 assessed as reduction in bacterial growth in presence of calcium salt; assay type: functional
Staphylococcus aureus [4] = experiment: Antibacterial activity against methicillin-resistant Staphylococcus aureus NCTC 10442 assessed as reduction in bacterial growth in presence of sodium salt; assay type: functional
Staphylococcus aureus [5] = experiment: Antibacterial activity against methicillin-resistant Staphylococcus aureus NCTC 10442 assessed as reduction in bacterial growth in presence of potassium salt; assay type: functional
Staphylococcus aureus [6] = experiment: Bactericidal activity against Staphylococcus aureus NCTC 10442 assessed as log reduction in bacterial growth at 4X MIC measured within 0.5 hr by time-kill kinetic assay; assay type: functional; conditions: time hrs <=0.5
HEK293 [7] = experiment: Cytotoxicity against human HEK293 cells assessed as reduction in cell viability at 50 ug/ml after 24 hrs by CCK8 assay; assay type: cell-based; conditions: hek293, 24 h, at 50 µg/mL
Staphylococcus aureus [8] = experiment: Antibacterial activity against methicillin-resistant Staphylococcus aureus NCTC 10442 assessed as reduction in bacterial growth in presence of magnesium salt; assay type: functional
HEK293 [9] = experiment: Cytotoxicity against human HEK293 cells assessed as reduction in cell viability at 12.5 ug/ml after 24 hrs by CCK8 assay; assay type: cell-based; conditions: hek293, 24 h, at 12.5 µg/mL
Staphylococcus aureus [10] = experiment: In vivo antibacterial activity against Staphylococcus aureus ATCC29213 in mouse bacterial keratitis model assessed as log reduction in bacterial load in infected cornea at 0.5%,TOP after 24 hour infection; assay type: functional, organism-based
HEK293 [11] = experiment: Cytotoxicity against human HEK293 cells assessed as reduction in cell viability at 25 ug/ml after 24 hrs by CCK8 assay; assay type: cell-based; conditions: hek293, 24 h, at 25 µg/mL
[12] = Cytotoxicity against mouse NCTC clone 929 cells assessed as reduction in cell viability at 3.125 ug/ml after 24 hrs by CCK8 assay; assay type: cell-based; conditions: nctc clone 929, 24 h, at 3.125 µg/mL
Staphylococcus aureus [13] = experiment: Bactericidal activity against Staphylococcus aureus NCTC 10442 assessed as log reduction in bacterial growth at 2X MIC measured within 24 hr by time-kill kinetic assay; assay type: functional
Staphylococcus aureus [14] = experiment: Antibacterial activity against Staphylococcus aureus ATCC29213 assessed as reduction in bacterial growth in presence of ferrous salt; assay type: functional
Staphylococcus aureus [15] = experiment: Antibacterial activity against methicillin-resistant Staphylococcus aureus N315 assessed as reduction in bacterial growth in presence of ferrous salt; assay type: functional
Staphylococcus aureus [16] = experiment: Antibacterial activity against methicillin-resistant Staphylococcus aureus NCTC 10442 assessed as reduction in bacterial growth in presence of ferric salt; assay type: functional
Staphylococcus aureus [17] = experiment: Antibacterial activity against Staphylococcus aureus ATCC29213 assessed as reduction in bacterial growth in presence of ferric salt; assay type: functional
J774.A1 [18] = experiment: Cytotoxicity against mouse J774.A1 cells assessed as reduction in cell viability at 25 ug/ml after 24 hrs by CCK8 assay; assay type: cell-based; conditions: j774.a1, 24 h, at 25 µg/mL
Staphylococcus aureus [19] = experiment: Antibacterial activity against methicillin-resistant Staphylococcus aureus N315 assessed as reduction in bacterial growth in presence of zinc salt; assay type: functional
HEK293 [20] = experiment: Cytotoxicity against human HEK293 cells assessed as reduction in cell viability at 3.125 ug/ml after 24 hrs by CCK8 assay; assay type: cell-based; conditions: hek293, 24 h, at 3.125 µg/mL
Staphylococcus aureus [21] = experiment: Antibacterial activity against Staphylococcus aureus ATCC29213 assessed as reduction in bacterial growth; assay type: functional
Staphylococcus aureus [22] = experiment: Antibacterial activity against Staphylococcus aureus ATCC29213 assessed as reduction in bacterial growth in presence of zinc salt; assay type: functional
Escherichia coli = experiment: Antibacterial activity against Escherichia coli ATCC25922 assessed as reduction in bacterial growth; assay type: functional
J774.A1 [23] = experiment: Cytotoxicity against mouse J774.A1 cells assessed as reduction in cell viability at 3.125 ug/ml after 24 hrs by CCK8 assay; assay type: cell-based; conditions: j774.a1, 24 h, at 3.125 µg/mL
Staphylococcus aureus [24] = experiment: Antibacterial activity against methicillin-resistant Staphylococcus aureus N315 assessed as reduction in bacterial growth in presence of ferric salt; assay type: functional
Cell membrane = experiment: Induction of membrane disruption in […] assessed as increase in red fluorescence at 12.48 ug/ml by SYTO 9/PI staining based flourescence microscopy method; assay type: functional; conditions: dose 12.48 µg/ml
Staphylococcus aureus [25] = experiment: Antibacterial activity against Staphylococcus aureus ATCC29213 assessed as reduction in bacterial growth in presence of potassium salt; assay type: functional
Staphylococcus aureus [26] = experiment: Antibacterial activity against Staphylococcus aureus ATCC29213 assessed as reduction in bacterial growth in presence of calcium salt; assay type: functional
Staphylococcus aureus [27] = experiment: Bactericidal activity against Staphylococcus aureus NCTC 10442 assessed as log reduction in bacterial growth at 8X MIC measured within 0.5 hr by time-kill kinetic assay; assay type: functional
J774.A1 [28] = experiment: Cytotoxicity against mouse J774.A1 cells assessed as reduction in cell viability at 6.25 ug/ml after 24 hrs by CCK8 assay; assay type: cell-based; conditions: j774.a1, 24 h, at 6.25 µg/mL
Staphylococcus aureus [29] = experiment: Antibacterial activity against methicillin-resistant Staphylococcus aureus NCTC 10442 assessed as reduction in bacterial growth; assay type: functional
Staphylococcus aureus [30] = experiment: Antibacterial activity against methicillin-resistant Staphylococcus aureus N315 assessed as reduction in bacterial growth in presence of magnesium salt; assay type: functional
[31] = Cytotoxicity against mouse NCTC clone 929 cells assessed as reduction in cell viability at 12.5 ug/ml after 24 hrs by CCK8 assay; assay type: cell-based; conditions: nctc clone 929, 24 h, at 12.5 µg/mL
Staphylococcus aureus [32] = experiment: Bactericidal activity against Staphylococcus aureus NCTC 10442 assessed as log reduction in bacterial growth at 1X MIC measured within 24 hr by time-kill kinetic assay; assay type: functional
[33] = Cytotoxicity against mouse NCTC clone 929 cells assessed as reduction in cell viability at 25 ug/ml after 24 hrs by CCK8 assay; assay type: cell-based; conditions: nctc clone 929, 24 h, at 25 µg/mL
Staphylococcus aureus [34] = experiment: Antibacterial activity against methicillin-resistant Staphylococcus aureus N315 assessed as reduction in bacterial growth in presence of sodium salt; assay type: functional
[35] = Cytotoxicity against mouse NCTC clone 929 cells assessed as reduction in cell viability at 50 ug/ml after 24 hrs by CCK8 assay; assay type: cell-based; conditions: nctc clone 929, 24 h, at 50 µg/mL
Staphylococcus aureus [36] = experiment: Antibacterial activity against methicillin-resistant Staphylococcus aureus NCTC 10442 assessed as reduction in bacterial growth in presence of zinc salt; assay type: functional
Staphylococcus aureus [37] = experiment: Antibacterial activity against methicillin-resistant Staphylococcus aureus N315 assessed as reduction in bacterial growth in presence of potassium salt; assay type: functional
Staphylococcus aureus [38] = experiment: Antibacterial activity against methicillin-resistant Staphylococcus aureus N315 assessed as reduction in bacterial growth; assay type: functional
J774.A1 [39] = experiment: Cytotoxicity against mouse J774.A1 cells assessed as reduction in cell viability at 12.5 ug/ml after 24 hrs by CCK8 assay; assay type: cell-based; conditions: j774.a1, 24 h, at 12.5 µg/mL
Staphylococcus aureus [40] = experiment: Antibacterial activity against methicillin-resistant Staphylococcus aureus NCTC 10442 assessed as reduction in bacterial growth in presence of calcium salt; assay type: functional
Staphylococcus aureus [41] = experiment: Antibacterial activity against Staphylococcus aureus ATCC29213 assessed as reduction in bacterial growth in presence of magnesium salt; assay type: functional
J774.A1 [42] = experiment: Cytotoxicity against mouse J774.A1 cells assessed as reduction in cell viability at 50 ug/ml after 24 hrs by CCK8 assay; assay type: cell-based; conditions: j774.a1, 24 h, at 50 µg/mL
HEK293 [43] = experiment: Cytotoxicity against human HEK293 cells assessed as reduction in cell viability at 6.25 ug/ml after 24 hrs by CCK8 assay; assay type: cell-based; conditions: hek293, 24 h, at 6.25 µg/mL
Staphylococcus aureus [44] = experiment: Induction of drug resistance in Staphylococcus aureus ATCC29213 assessed as reduction in bacterial growth at 0.5 times MIC measured after 24 hr; assay type: functional, organism-based
[45] = Cytotoxicity against mouse NCTC clone 929 cells assessed as reduction in cell viability at 6.25 ug/ml after 24 hrs by CCK8 assay; assay type: cell-based; conditions: nctc clone 929, 24 h, at 6.25 µg/mL
Staphylococcus aureus [46] = experiment: Antibacterial activity against methicillin-resistant Staphylococcus aureus NCTC 10442 assessed as reduction in bacterial growth in presence of ferrous salt; assay type: functional

Compound: CC(C)=CCC/C(C)=C/Cn1cc(CC(=O)NCCN(CCNC(=N)N)CCNC(=N)N)c2ccccc21
- HC50 [1]: 226 µg/mL
- MIC (Staphylococcus aureus [2]): 1.56 µg/mL
- MIC (Staphylococcus aureus [3]): 1.56 µg/mL
- MIC (Staphylococcus aureus [4]): 1.56 µg/mL
- MIC (Staphylococcus aureus [5]): 1.56 µg/mL
- log reduction (Staphylococcus aureus [6]): 3 log10 CFU/mL
- Activity (HEK293 [7]): 68.26%
- MIC (Staphylococcus aureus [8]): 1.56 µg/mL
- Activity (HEK293 [9]): 84.69%
- Activity (Staphylococcus aureus [10]): Active
- Activity (HEK293 [11]): 76.79%
- Activity [12]: 87.85%
- Activity (Staphylococcus aureus [13]): 3 CFU
- MIC (Staphylococcus aureus [14]): 1.56 µg/mL
- MIC (Staphylococcus aureus [15]): 1.56 µg/mL
- MIC (Staphylococcus aureus [16]): 1.56 µg/mL
- MIC (Staphylococcus aureus [17]): 1.56 µg/mL
- Activity (J774.A1 [18]): 77.46%
- MIC (Staphylococcus aureus [19]): 1.56 µg/mL
- Activity (HEK293 [20]): 94.48%
- MIC (Staphylococcus aureus [21]): 1.56 µg/mL (≈ 2.98 µM)
- MIC (Staphylococcus aureus [22]): 1.56 µg/mL
- MIC (Escherichia coli): 12.5 µg/mL (≈ 23.9 µM)
- Activity (J774.A1 [23]): 100.34%
- MIC (Staphylococcus aureus [24]): 1.56 µg/mL
- Activity (Cell membrane): Active
- MIC (Staphylococcus aureus [25]): 1.56 µg/mL
- MIC (Staphylococcus aureus [26]): 1.56 µg/mL
- Activity (Staphylococcus aureus [27]): 3 CFU
- Activity (J774.A1 [28]): 95.8%
- MIC (Staphylococcus aureus [29]): 1.56 µg/mL (≈ 2.98 µM)
- MIC (Staphylococcus aureus [30]): 1.56 µg/mL
- Activity [31]: 72.66%
- Activity (Staphylococcus aureus [32]): 3 CFU
- Activity [33]: 71.16%
- MIC (Staphylococcus aureus [34]): 1.56 µg/mL
- Activity [35]: 64.79%
- MIC (Staphylococcus aureus [36]): 1.56 µg/mL
- MIC (Staphylococcus aureus [37]): 1.56 µg/mL
- MIC (Staphylococcus aureus [38]): 1.56 µg/mL (≈ 2.98 µM)
- Activity (J774.A1 [39]): 85.85%
- MIC (Staphylococcus aureus [40]): 1.56 µg/mL
- MIC (Staphylococcus aureus [41]): 1.56 µg/mL
- Activity (J774.A1 [42]): 56%
- Activity (HEK293 [43]): 92.66%
- Activity (Staphylococcus aureus [44]): inactive
- Activity [45]: 79.43%
- MIC (Staphylococcus aureus [46]): 1.56 µg/mL
